pIC50: −log10 of the molar value. Where two headings read alike, the source gives them in different places.
How the values were obtained:
mouse RORγt = molecular target: T1, mouse RORγt (Mus musculus, UniProt P51450); assay: Drosophila S2 cell RORγt luciferase reporter; type: cell-based; conditions: for effect on RORγ transcriptional activity: S2 reporter system
T1 construct: mouse RORγt (amino acids 79 to the carboxyl terminal end); expressed in transfected cells
T1 sequence (P51450 79-495 isoform P51450-2): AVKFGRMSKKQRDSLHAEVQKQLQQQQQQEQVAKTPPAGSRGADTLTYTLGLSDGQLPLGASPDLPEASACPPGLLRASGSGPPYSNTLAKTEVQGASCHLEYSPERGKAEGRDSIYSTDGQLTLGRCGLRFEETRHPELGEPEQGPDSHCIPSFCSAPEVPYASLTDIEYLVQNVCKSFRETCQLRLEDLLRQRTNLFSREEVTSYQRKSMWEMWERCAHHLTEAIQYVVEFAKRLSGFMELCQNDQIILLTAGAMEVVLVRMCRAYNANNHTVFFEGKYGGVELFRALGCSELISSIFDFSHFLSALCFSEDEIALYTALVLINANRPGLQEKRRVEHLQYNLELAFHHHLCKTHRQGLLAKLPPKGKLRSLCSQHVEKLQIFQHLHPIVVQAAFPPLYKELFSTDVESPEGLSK
Excerpt: The Drosophila S2 cell line was originally purchased from Invitrogen and was maintained in Schneider's medium supplemented with 10% heat-inactivated bovine fetal calf serum and antibiotics (Invitrogen). […] The resulting chimeric gene was subcloned into the copper inducible pMT/V5-His A vector (Invitrogen). […] Coding sequences for firefly luciferase (Promega) were PCR amplified and subcloned into pUAST vector containing Gal4 binding enhancer sequences. Renilla luciferase construct under the polIII promoter was obtained from Dr. Dasgupta's laboratory (NYU medical center). In order to generate stable cell lines, cells were co-transfected with pMT-G4 DBD-RORγt, pMT-G4 DBD-RORα, pMT-G4 DBD-DHR3, or pMT-G4 DBDVP16 and pHygro plasmids (Invitrogen) and screened for resistant colonies in the presence of hygromycin (0.3 mg/mL). […] Using similar methods, stable clones with genomic integration of the luciferase reporters and other reporters were generated such as pMT-RORα_luc, pMT-DHR3_Luc, or pMT-VP16_luc.
(§1) The following representative compounds are tested for their RORγt inhibitory activity and toxicity.
Promega Dual-Glo system is widely used for HTS as the luciferase substrates. Cell culture medium was reduced to the final volume of 10 μl or less and 10 μl of Dual-glo and 10 μl of Stop-glo luciferase substrates were added in a sequencial manner (Promega). Firefly and Renilla luciferase activity was determined by measuring luminescence signals using an automated 384-well plate reader equipped with multiple stack units (such as the Analyst GT or Envision plate readers).
10,000 Drosophila stable S2 cells with genomic integration of the Cu2+-inducible G4 DBD-mouse RORγ construct were transfected with 5 ng of pUASTfirefly luciferase and 7 ng of Pol III-Renilla luciferase and dispensed into white bottom-tissue culture 384-well plates (Corning). […] The following morning, Stop-glo luciferase substrates (Promega) were used to measure luciferase activity.
The Drosophila S2 cell line was originally purchased from Invitrogen and was maintained in Schneider's Drosophila medium supplemented with 10% heat-inactivated bovine fetal calf serum and 1× antibiotic-antimycotic solution (Invitrogen). […] The resulting chimeric gene was subcloned into the copper inducible pMT/V5-His A vector (Invitrogen) and into the constitutive pAc vector. […] Coding sequences for firefly luciferase (Promega) were PCR amplified and subcloned into the pUAST vector containing five Gal4 binding enhancer sequences. The Renilla luciferase construct under a pol III promoter and the pAc vector were obtained from R. Dasgupta (NYU School of Medicine). To generate cell lines stably expressing various chimeric proteins upon copper addition, S2 cells were co-transfected with pMT plasmids encoding individual G4 DBD chimeric constructs and the pCoHygro plasmid (Invitrogen), before screening for resistant colonies in the presence of hygromycin (0.3 mg/mL). […] The human androgen receptor (hAR) expression plasmid pMK33-hAR and its reporter TAT3-Luc were obtained from M. Garabedian (NYU School of Medicine). […] R1881 (10 nM) and Dafachronic acid (10 μM) were used as ligands for hAR and Daf12. Upon treatment of cells with copper, in 384 well plates, there was specific increase in firefly luciferase activity versus normalized Renilla luciferase activity for all cell lines described above, validating the method for high-throughput screen.
Transfections of firefly and Renilla reporter constructs were performed using the Effectene kit from Qiagen according to the manufacturer's protocol with some modifications.

RORγt = molecular target: T2, RORγt (Mus musculus, UniProt P51450); type: cell-based; conditions: mouse T cells
T2 construct: expressed in transfected cells; host or cells: mouse naive CD4+ T cells, retroviral MIGr vector
Protocol: Naive CD25^− CD62L^+CD44^low/int cells were sorted from RORγt^fl/fl mice and transduced with control-IRES-GFP (WT) or CRE-IRES-GFP (KO) retrovirus. […] FACS-sorted naive T cells were transduced with retroviral vectors encoding murine RORα-IRES-GFP or RORγt-IRES-GFP on Day 1 (16 h after TCR stimulation) and GFP expressing cells were gated for analysis on Day 5. […] Lymphocytes were isolated on day 21 after disease induction. The cells were stimulated for 4 h with PMA/Ionomycin and stained for surface markers and intracellular cytokines.
T cells were purified from lymph nodes and spleens of six to eight weeks old B6 mice (Taconic), by magnetically depleting B220^+ cells (autoMACS, Miltenyi), and then sorting CD8^−DAPI^−CD19^−CD4^+CD25^−CD62L^+CD44^low/Int naive T cells on a FACSAria (BD). […] For T cell polarization, 200 μl cells were seeded at 0.4×10^5 cells per mL in 96-well plates pre-coated with anti-CD3ε (5 μg/mL) and anti-CD28 (10 μg/mL). Cells were cultured for 4-5 days in Th17 (TGF-β (0.3 ng/mL), IL-6 (20 ng/mL), and anti-IFN-γ and anti-IL-4 (2 ng/mL)), Th1 (IL-12 (10 ng/mL), IL-2 (10 U/mL) and anti-IL-4 (2 ng/mL)), or Th2 (IL-4 (10 ng/mL), and anti-P35 and anti-IFN-γ 2 ng/mL)) conditions. For ectopic expression ROR proteins, native CD4^+ T cells were infected with retroviral MIGr-control, MIGr-RORα or MIGr-RORγ 24 hrs after activation, and cultured without exogenous cytokines or only with IL-6. At day 1, compounds dissolved in DMSO were added. For cytokine analysis, cells were incubated for 5 hours with phorbol 12-myristate 13-acetate (50 ng/mL; Sigma), ionomycin (500 ng/mL; Sigma) and GolgiStop (BD). Intracellular cytokine staining was performed according to the manufacturer's protocol (Cytofix/Cytoperm buffer set from BD) with alexa647-conjugated anti-IL-17a (eBioscience), and PE-conjugated anti-IFN-γ or anti-IL-4 (eBioscience). An LSR II (BD Biosciences) and FlowJo software (Tree Star) were used for flow cytometry and analysis. Dead cells were excluded using the Live/Dead fixable aqua dead cell stain kit (Invitrogen).

[1] = tested on: experimental autoimmune encephalomyelitis (EAE); assay: Active EAE (MOG35-55/CFA) in C57BL/6 mice; type: in vivo, mouse; conditions: IP daily from day 2
[2] = tested on: human embryonic kidney 293t cell lines; assay: Toxicity on human embryonic kidney 293T cells; conditions: human embryonic kidney 293t cell lines
Protocol: as §1

T2 sequence (P51450 other isoform, or with tags, fused parts or gaps): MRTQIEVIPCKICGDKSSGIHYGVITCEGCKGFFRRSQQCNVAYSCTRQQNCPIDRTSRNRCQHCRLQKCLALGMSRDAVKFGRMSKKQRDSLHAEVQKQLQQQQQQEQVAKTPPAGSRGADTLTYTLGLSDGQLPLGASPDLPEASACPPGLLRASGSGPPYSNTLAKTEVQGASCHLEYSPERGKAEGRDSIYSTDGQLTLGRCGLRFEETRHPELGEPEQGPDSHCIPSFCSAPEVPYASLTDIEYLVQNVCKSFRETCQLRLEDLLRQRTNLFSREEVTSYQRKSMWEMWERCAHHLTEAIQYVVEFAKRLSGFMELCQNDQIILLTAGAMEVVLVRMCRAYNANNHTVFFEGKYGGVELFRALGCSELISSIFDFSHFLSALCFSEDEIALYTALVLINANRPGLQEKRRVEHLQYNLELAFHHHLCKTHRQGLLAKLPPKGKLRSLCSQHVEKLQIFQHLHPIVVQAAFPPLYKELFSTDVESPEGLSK

`C[C@H]1O[C@@H](O[C@H]2CC[C@]3(C=O)[C@H]4CC[C@]5(C)[C@@H](C6=CC(=O)OC6)CC[C@]5(O)[C@@H]4CC[C@]3(O)C2)C[C@H](O)[C@@H]1O[C@@H]1O[C@H](CO)[C@@H](O)[C@H](O)[C@H]1O` [erysimoside, Erysimoside] was tested, and the “effect on RORγ transcriptional activity” value (mouse RORγt) was “no significant effect”.
In the case of `C[C@H]1O[C@@H](O[C@H]2CC[C@@]3(C)[C@H](CC[C@@H]4[C@@H]3C[C@@H](O)[C@]3(C)[C@@H](C5=CC(=O)OC5)CC[C@]43O)C2)C[C@H](O)[C@@H]1O[C@H]1C[C@H](O)[C@H](O[C@H]2C[C@H](O)[C@H](O[C@@H]3O[C@H](CO)[C@@H](O)[C@H](O)[C@H]3O)[C@@H](C)O2)[C@@H](C)O1` [deslanoside, Deslanoside], the “effect on RORγ transcriptional activity” value (mouse RORγt) was “no significant effect”.
With β-acetyldigoxin the “RORγt-dependent Th17 cell differentiation” value (RORγt) was “selectively inhibited” and the “effect on RORγ transcriptional activity” value (mouse RORγt) was “selectively inhibited RORγ with similar IC50 values”.
With `C[C@]12CC[C@H](O)C[C@H]1CC[C@@H]1[C@@H]2C[C@@H](O)[C@]2(C)[C@@H](C3=CC(=O)OC3)CC[C@]12O` [digoxigenin, Digoxigenin] the “EAE onset and severity of progression” value [1] was “no effect”.
With `C[C@]12CC[C@H](O)C[C@H]1CC[C@@H]1[C@@H]2CC[C@]2(C)[C@@H](C3=CC(=O)OC3)CC[C@]12O` [digitoxigenin, Digitoxigenin] the “effect on RORγ transcriptional activity” value (mouse RORγt) was “no significant effect”.
`COC(=O)C1CCC2(O)C3CCC4CC(OC5CC(O)C(OC6CC(O)C(OC7CC(O)C(O)C(C)O7)C(C)O6)C(C)O5)CCC4(C)C3CC(O)C12C` (stereo not shown) [Compound 24] was tested, and the pIC50 (mouse RORγt; S2 cell RORγt reporter, read-out: IC50) was 5.00 to 6.00.
`C[C@H]1O[C@@H](O[C@H]2[C@@H](O)C[C@H](O[C@H]3[C@@H](O)C[C@H](O[C@H]4CC[C@@]5(C)[C@H](CC[C@@H]6[C@@H]5CC[C@]5(C)[C@@H](C7=CC(=O)OC7)CC[C@]65O)C4)O[C@@H]3C)O[C@@H]2C)C[C@H](O)[C@@H]1O` [Digitoxin] was tested, and the “RORγt-dependent Th17 cell differentiation” value (RORγt) was “selectively inhibited” and the “effect on RORγ transcriptional activity” value (mouse RORγt) was “selectively inhibited RORγ with similar IC50 values”.
With `CO[C@H]1C[C@H](O[C@H]2CC[C@@]3(C)[C@H](CC[C@@H]4[C@@H]3CC[C@]3(C)[C@@H](C5=CC(=O)OC5)[C@@H](OC(C)=O)C[C@]43O)C2)O[C@@H](C)[C@@H]1O` [oleandrin, Oleandrin] the “effect on RORγ transcriptional activity” value (mouse RORγt) was “no significant effect”.
For `CC1O[C@@H](OC2C(C)O[C@H](OC3C(C)O[C@@H](O[C@H]4CC[C@@]5(C)[C@H](CC[C@@H]6[C@@H]5C[C@@H](O)[C@]5(C)[C@@H](C7=CC(=O)OC7Cc7ccccc7O)CC[C@]65O)C4)C[C@H]3O)C[C@H]2O)C[C@@H](O)C1O` (stereo partly shown) [Compound 18, Digoxin-21-salicylyl], the Human cell toxicity [2] was “xxx (cytotoxicity between 1-10 μM)” and the pIC50 (mouse RORγt) was > 6.00.
With `CC1O[C@@H](OC2C(C)O[C@H](OC3C(C)O[C@@H](O[C@H]4CC[C@@]5(C)[C@H](CC[C@@H]6[C@@H]5C[C@@H](O)[C@]5(C)[C@@H](C7CC(=O)OC7Cc7ccccc7O)CC[C@]65O)C4)C[C@H]3O)C[C@H]2O)C[C@@H](O)C1O` (stereo partly shown) [Compound 19] the Human cell toxicity [2] was “xxx (cytotoxicity between 1-10 μM)” and the pIC50 (mouse RORγt) was 5.00 to 6.00.
`C[C@@H]1O[C@@H](O[C@H]2C[C@@H](O)[C@]3(CO)[C@H]4[C@H](O)C[C@]5(C)[C@@H](C6=CC(=O)OC6)CC[C@]5(O)[C@@H]4CC[C@]3(O)C2)[C@H](O)[C@H](O)[C@H]1O` [ouabain, Ouabain octahydrate] was tested, and the “effect on RORγ transcriptional activity” value (mouse RORγt) was “no significant effect”.
In the case of `CC(=O)OC1C(C)O[C@@H](OC2C(C)O[C@H](OC3C(C)O[C@@H](O[C@H]4CC[C@@]5(C)[C@H](CC[C@@H]6[C@@H]5C[C@@H](OC(C)=O)[C@]5(C)[C@@H](C7=CC(=O)OC7)CC[C@]65O)C4)C[C@H]3OC(C)=O)C[C@H]2OC(C)=O)C[C@H]1OC(C)=O` (stereo partly shown) [Compound 21], the pIC50 (mouse RORγt) was < 4.70.
`C[C@@H]1O[C@@H](O[C@@H]2C=C3CC[C@@H]4[C@H](CC[C@]5(C)[C@@H](c6ccc(=O)oc6)CC[C@]45O)[C@@]3(C)CC2)[C@H](O)[C@H](O)[C@H]1O` [proscillaridin A, Proscillaridin A] was tested, and the “effect on RORγ transcriptional activity” value (mouse RORγt) was “no significant effect”.
`CC1O[C@@H](OC2C(C)O[C@H](OC3C(C)O[C@@H](O[C@H]4CC[C@@]5(C)[C@H](CC[C@@H]6[C@@H]5C[C@@H](O)[C@]5(C)[C@@H](C7CC(O)OC7Cc7ccccc7O)CC[C@]65O)C4)C[C@H]3O)C[C@H]2O)C[C@@H](O)C1O` (stereo partly shown) [Compound 20] was tested, and the pIC50 (mouse RORγt) was < 4.70.
`C[C@]12C[C@@H](O)[C@H]3[C@@H](CC[C@]4(O)C[C@@H](O)C[C@@H](O)[C@]34CO)[C@@]1(O)CC[C@@H]2C1=CC(=O)OC1` [ouabagenin, Ouabagenin] was tested, and the “effect on RORγ transcriptional activity” value (mouse RORγt) was “no significant effect”.

— patent US9505798B2, “Steroid compounds as RORyt modulators and uses thereof” (New York University, priority 2010, dated 2016)
